Assays:
[1] = biological target: T1, TLR7 (Homo sapiens, UniProt Q9NYK1); test: HEK/293 TLR7 Cell Assay; type: cell-based; conditions: TLR7/NFKb HEK cells, R848 agonist 10 uM final concentration, Steady-Glo readout; read-out: TLR7 potency
T1 construct: expressed in transfected cells; host or cells: HEK/293 cells carrying TLR7 and an NF-kB luciferase reporter
T1 sequence (Q9NYK1 27-1049): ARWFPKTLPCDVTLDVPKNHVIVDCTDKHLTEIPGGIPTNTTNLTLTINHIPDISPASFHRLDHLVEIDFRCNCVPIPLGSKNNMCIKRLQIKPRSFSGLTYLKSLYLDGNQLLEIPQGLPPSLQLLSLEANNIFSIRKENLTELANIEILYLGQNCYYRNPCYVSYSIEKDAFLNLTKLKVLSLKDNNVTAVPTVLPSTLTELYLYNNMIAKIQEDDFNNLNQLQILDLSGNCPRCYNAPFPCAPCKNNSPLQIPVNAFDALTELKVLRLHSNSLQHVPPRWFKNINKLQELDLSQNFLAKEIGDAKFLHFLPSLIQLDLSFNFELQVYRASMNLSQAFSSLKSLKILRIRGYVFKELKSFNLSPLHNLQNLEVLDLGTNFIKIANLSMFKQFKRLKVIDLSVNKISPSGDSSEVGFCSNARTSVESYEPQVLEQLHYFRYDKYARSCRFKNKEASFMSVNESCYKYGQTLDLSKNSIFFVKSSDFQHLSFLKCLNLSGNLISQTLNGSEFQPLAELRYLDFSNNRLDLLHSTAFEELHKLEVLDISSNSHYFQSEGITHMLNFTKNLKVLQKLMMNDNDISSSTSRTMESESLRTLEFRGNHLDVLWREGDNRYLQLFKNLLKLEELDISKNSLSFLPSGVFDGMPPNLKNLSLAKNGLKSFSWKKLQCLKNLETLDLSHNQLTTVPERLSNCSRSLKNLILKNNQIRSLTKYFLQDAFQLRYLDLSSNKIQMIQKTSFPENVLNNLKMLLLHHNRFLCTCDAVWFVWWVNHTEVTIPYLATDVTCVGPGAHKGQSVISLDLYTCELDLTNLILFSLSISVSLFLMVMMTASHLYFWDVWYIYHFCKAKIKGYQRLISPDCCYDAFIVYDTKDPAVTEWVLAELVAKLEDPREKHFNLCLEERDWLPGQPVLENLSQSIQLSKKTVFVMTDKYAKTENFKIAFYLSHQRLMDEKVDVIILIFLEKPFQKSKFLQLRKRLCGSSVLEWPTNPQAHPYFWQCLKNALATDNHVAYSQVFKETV
In short: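 Compounds added to HEK cells expressing TLR7 with an NFκB reporter 30 min ahead of 10 uM R848 challenge; luciferase signal (Steady-Glo) measured after 5 h, cells having been seeded 24 h earlier at 5000 per well.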

[2] = biological target: T2, TLR8 (Homo sapiens, UniProt Q9NR97); test: HEK/293 TLR8 Cell Assay; type: cell-based; conditions: HEK cells, R848 agonist 30 uM final concentration, Steady-Glo readout; read-out: TLR8 potency
T2 construct: expressed in transfected cells; host or cells: HEK/293 reporter cells (NF-kB luciferase)
T2 sequence (Q9NR97 27-1041): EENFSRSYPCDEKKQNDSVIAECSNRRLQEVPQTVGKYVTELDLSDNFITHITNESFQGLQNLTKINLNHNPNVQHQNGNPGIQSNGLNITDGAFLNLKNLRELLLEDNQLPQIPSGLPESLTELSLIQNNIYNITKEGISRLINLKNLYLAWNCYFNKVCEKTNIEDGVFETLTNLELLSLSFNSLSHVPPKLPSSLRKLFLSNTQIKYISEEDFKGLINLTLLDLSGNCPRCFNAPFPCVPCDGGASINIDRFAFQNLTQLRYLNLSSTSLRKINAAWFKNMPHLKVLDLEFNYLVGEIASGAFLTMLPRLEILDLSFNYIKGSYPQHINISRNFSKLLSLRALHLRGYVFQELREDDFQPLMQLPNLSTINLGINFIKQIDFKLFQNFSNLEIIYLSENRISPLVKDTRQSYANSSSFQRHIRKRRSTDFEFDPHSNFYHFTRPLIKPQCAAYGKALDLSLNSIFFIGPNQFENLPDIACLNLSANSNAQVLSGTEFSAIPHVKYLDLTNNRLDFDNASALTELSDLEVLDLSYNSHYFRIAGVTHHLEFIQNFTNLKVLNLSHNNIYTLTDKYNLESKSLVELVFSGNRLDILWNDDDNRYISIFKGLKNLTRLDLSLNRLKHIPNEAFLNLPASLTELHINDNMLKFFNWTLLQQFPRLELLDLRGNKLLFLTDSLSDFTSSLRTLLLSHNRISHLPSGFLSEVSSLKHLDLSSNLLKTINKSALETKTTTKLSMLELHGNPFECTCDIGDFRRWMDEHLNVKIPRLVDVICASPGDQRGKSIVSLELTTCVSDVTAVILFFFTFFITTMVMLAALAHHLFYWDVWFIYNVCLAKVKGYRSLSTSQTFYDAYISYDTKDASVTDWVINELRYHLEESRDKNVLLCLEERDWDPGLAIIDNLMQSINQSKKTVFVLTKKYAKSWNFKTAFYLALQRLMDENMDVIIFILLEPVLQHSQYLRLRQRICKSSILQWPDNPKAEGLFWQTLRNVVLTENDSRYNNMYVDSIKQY

| Compound | IC50 [1] | IC50 [2] |
| --- | --- | --- |
| C[C@@H]1CN(c2ccc(C(F)(F)F)c3ncccc23)C[C@H](CN2CCN(C)CC2)O1 [Example 330, 5-[(2R,6S)-2-Methyl-6-(4-methyl-piperazin-1-ylmethyl)-morpholin-4-yl]-8-trifluoromethyl-quinoline] | < 0.075 µM | < 0.075 µM |
| C[C@@H]1CN(c2ccc(C#N)c3ncncc23)C[C@H](CNC(=O)C2(F)CCNC2)O1 (stereo partly drawn) [Example 343, N-{[(2S,6R)-4-(8-cyanoquinazolin-5-yl)-6-methylmorpholin-2-yl]methyl}-3-fluoropyrrolidine-3-carboxamide] | < 0.075 µM | < 0.075 µM |
| C[C@@H]1CN(c2ccc(C#N)c3ncncc23)C[C@H](C(=O)NCC2(F)CCN(C)CC2)O1 [Example 346, (2R,6R)-4-(8-Cyano-quinazolin-5-yl)-6-methyl-morpholine-2-carboxylic acid (4-fluoro-1-methyl-piperidin-4-ylmethyl)-amide] | < 0.075 µM | < 0.075 µM |
| C[C@@H]1CN(c2ccc(C#N)c3ncncc23)C[C@H](C(=O)NC2CCN(C)C3(CCC3)C2)O1 (stereo partly drawn) [Example 347, (2R,6R)-4-(8-Cyano-quinazolin-5-yl)-6-methyl-morpholine-2-carboxylic acid (5-methyl-5-aza-spiro[3.5]non-8-yl)-amide] | < 0.075 µM | < 0.075 µM |
| C[C@@H]1CN(c2cnc(C#N)c3ncccc23)C[C@H](C(=O)NCC2(F)CCN(C)CC2)O1 [Example 348, (2R,6R)-4-(8-Cyano-[1,7]naphthyridin-5-yl)-6-methyl-morpholine-2-carboxylic acid (4-fluoro-1-methyl-piperidin-4-ylmethyl)-amide] | < 0.075 µM | > 0.15 µM |
| C[C@@H]1CN(c2cnc(C#N)c3ncccc23)C[C@H](CN2CCNCC2)O1 [Example 366, 5-((2R,6S)-2-Methyl-6-piperazin-1-ylmethyl-morpholin-4-yl)-[1,7]naphthyridine-8-carbonitrile] | < 0.075 µM | < 0.075 µM |
| C[C@@H]1CN(c2cnc(C#N)c3ncccc23)C[C@H](CN2CCC(N)C(F)(F)C2)O1 (stereo partly drawn) [Example 369, 5-[(2S,6R)-2-(4-Amino-3,3-difluoro-piperidin-1-ylmethyl)-6-methyl-morpholin-4-yl]-[1,7]naphthyridine-8-carbonitrile] | < 0.075 µM | < 0.075 µM |
| CCN1CCN(C[C@H]2CN(c3cnc(C#N)c4ncccc34)C[C@@H](C)O2)CC1 [Example 371, 5-[(2S,6R)-2-(4-Ethyl-piperazin-1-ylmethyl)-6-methyl-morpholin-4-yl]-naphthyridine-8-carbonitrile] | > 0.15 µM | < 0.075 µM |
| C[C@@H]1CN(c2cnc(C#N)c3ncccc23)C[C@H](CNCC(O)CF)O1 (stereo partly drawn) [Example 373, 5-{(2S,6R)-2-[(3-Fluoro-2-hydroxy-propylamino)-methyl]-6-methyl-morpholin-4-yl}-[1,7]naphthyridine-8-carbonitrile] | > 0.15 µM | > 0.15 µM |

Continued, values first:

| IC50 [1] | IC50 [2] | Compound |
| --- | --- | --- |
| < 0.075 µM | 0.075 to 0.15 µM | C[C@@H]1CN(c2ccc(C(F)(F)F)c3ncccc23)C[C@H](CN2CCC(C(C)(C)O)C2)O1 (stereo partly drawn) [Example 331, 2-{1-[(2S,6R)-6-Methyl-4-(8-trifluoromethyl-quinolin-5-yl)-morpholin-2-ylmethyl]-pyrrolidin-3-yl}-propan-2-ol] |
| 0.075 to 0.15 µM | < 0.075 µM | C[C@@H]1CN(c2cnc(C#N)c3ncccc23)C[C@H](CNC(=O)C2(F)CCNC2)O1 (stereo partly drawn) [Example 332, N-{[(2S,6R)-4-(8-cyano-1,7-naphthyridin-5-yl)-6-methylmorpholin-2-yl]methyl}-3-fluoropyrrolidine-3-carboxamide] |
| 0.075 to 0.15 µM | < 0.075 µM | C[C@@H]1CN(c2cnc(C#N)c3ncccc23)C[C@H](CNC(=O)C2(F)CCCNC2)O1 (stereo partly drawn) [Example 333, N-{[(2S,6R)-4-(8-cyano-1,7-naphthyridin-5-yl)-6-methylmorpholin-2-yl]methyl}-3-fluoropiperidine-3-carboxamide] |
| < 0.075 µM | < 0.075 µM | Cc1ccc(N2C[C@H](CNC(=O)CC3CCN(C)CC3)O[C@H](C)C2)c2cccnc12 [Example 342, N-{[(2S,6R)-6-methyl-4-(8-methylquinolin-5-yl)morpholin-2-yl]methyl}-2-(1-methylpiperidin-4-yl)acetamide] |
| < 0.075 µM | < 0.075 µM | C[C@@H]1CN(c2cnc(C#N)c3ncccc23)C[C@H](Cn2cc(C(=O)O)cn2)O1 [Example 365, 1-[(2R,6R)-4-(8-Cyano-[1,7]naphthyridin-5-yl)-6-methyl-morpholin-2-ylmethyl]-1H-pyrazole-4-carboxylic acid] |
| 0.075 to 0.15 µM | < 0.075 µM | C[C@@H]1CN(c2cnc(C#N)c3ncccc23)C[C@H](CN2CCC(N3CCOCC3)CC2)O1 [Example 367, 5-[(2R,6S)-2-Methyl-6-(4-morpholin-4-yl-piperidin-1-ylmethyl)-morpholin-4-yl]-[1,7]naphthyridine-8-carbonitrile] |
| < 0.075 µM | < 0.075 µM | C[C@@H]1CN(c2cnc(C#N)c3ncccc23)C[C@H](CN2CCN(C)CC2)O1 [Example 368, 5-[(2R,6S)-2-Methyl-6-(4-methyl-piperazin-1-ylmethyl)-morpholin-4-yl]-naphthyridine-8-carbonitrile] |
| < 0.075 µM | < 0.075 µM | C[C@@H]1CN(c2cnc(C#N)c3ncccc23)C[C@H](CN2CCC(F)(CN)CC2)O1 [Example 370, 5-[(2S,6R)-2-(4-Aminomethyl-4-fluoro-piperidin-1-ylmethyl)-6-methyl-morpholin-4-yl]-[1,7]naphthyridine-8-carbonitrile] |
| 0.075 to 0.15 µM | < 0.075 µM | C[C@@H]1CN(c2cnc(C#N)c3ncccc23)C[C@H](CN2CCN(CCO)CC2)O1 [Example 372, 5-{(2S,6R)-2-[4-(2-Hydroxy-ethyl)-piperazin-1-ylmethyl]-6-methyl-morpholin-4-yl}-[1,7]naphthyridine-8-carbonitrile] |
| > 0.15 µM | 0.075 to 0.15 µM | CC(=O)NCCSC[C@H]1CN(c2cnc(C#N)c3ncccc23)C[C@@H](C)O1 [Example 374, N-{2-[(2R,6R)-4-(8-Cyano-[1,7]naphthyridin-5-yl)-6-methyl-morpholin-2-ylmethylsulfanyl]-ethyl}-acetamide] |
| > 0.15 µM | > 0.15 µM | C[C@@H]1CN(c2cnc(C#N)c3ncccc23)C[C@H](CN2CCS(=O)(=O)CC2)O1 [Example 376, 5-[(2S,6R)-2-(1,1-Dioxo-1lambda6-thiomorpholin-4-ylmethyl)-6-methyl-morpholin-4-yl]-[1,7]naphthyridine-8-carbonitrile] |
